{"source": "ChEMBL document CHEMBL1133856", "about": "“2-Aryl indole NK(1) antagonists: optimisation of the amide substituent” (Bioorg Med Chem Lett, 2001)", "key": {"Substance-P receptor": {"molecular_target": "Substance-P receptor (Homo sapiens, UniProt P25103)", "sequence (P25103 whole entry)": "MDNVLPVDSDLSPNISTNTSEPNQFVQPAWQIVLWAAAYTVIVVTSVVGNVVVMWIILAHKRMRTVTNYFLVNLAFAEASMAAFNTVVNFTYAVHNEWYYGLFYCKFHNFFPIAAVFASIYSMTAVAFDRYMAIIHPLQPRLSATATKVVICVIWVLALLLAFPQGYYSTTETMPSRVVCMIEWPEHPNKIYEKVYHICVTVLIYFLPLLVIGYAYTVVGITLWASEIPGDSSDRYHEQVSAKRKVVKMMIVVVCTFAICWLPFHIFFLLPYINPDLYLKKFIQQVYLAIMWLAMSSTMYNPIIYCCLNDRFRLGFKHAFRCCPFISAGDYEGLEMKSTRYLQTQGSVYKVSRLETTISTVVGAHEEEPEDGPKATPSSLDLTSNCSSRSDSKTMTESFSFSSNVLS", "assay": "Ability to displace [125I]-labeled substance P from human cloned Tachykinin receptor 1 in CHO cells.", "format": "cell-based"}, "Gerbillinae [1]": {"tested_on": "Gerbillinae", "assay": "In vivo percent inhibition of gerbil foot tapping 2 hours after iv administration of 1 mg/kg", "format": "functional"}, "Gerbillinae [2]": {"tested_on": "Gerbillinae", "assay": "In vivo percent inhibition of gerbil foot tapping 0 hours after iv administration of 1 mg/kg", "format": "functional"}, "Gerbillinae [3]": {"tested_on": "Gerbillinae", "assay": "In vivo percent inhibition of gerbil foot tapping 0 hours after iv administration of 3 mg/kg", "format": "functional"}, "Gerbillinae [4]": {"tested_on": "Gerbillinae", "assay": "In vivo percent inhibition of gerbil foot tapping 2 hours after iv administration of 3 mg/kg", "format": "functional"}, "[5]": {"assay": "Time for maximum plasma concentration determined in rat", "format": "ADME, organism-based"}, "[6]": {"assay": "Maximum plasma concentration determined in rat", "format": "ADME, organism-based"}, "[7]": {"assay": "Steady state volume of distribution determined in rat", "format": "ADME, organism-based", "conditions": "in vivo, read-out: Vss"}, "Gerbillinae [8]": {"tested_on": "Gerbillinae", "assay": "In vivo percent inhibition of gerbil foot tapping 0 hours after iv administration at 3 mg/kg", "format": "functional"}, "[9]": {"assay": "Oral bioavailability in rat", "format": "ADME, organism-based", "conditions": "in vivo"}, "[10]": {"assay": "Plasma clearance rate determined in rat", "format": "ADME, organism-based"}, "[11]": {"assay": "Mean residence time determined in rat", "format": "ADME, organism-based", "conditions": "in vivo, read-out: Time"}, "[12]": {"assay": "Plasma half life determined in rat", "format": "ADME, organism-based", "conditions": "read-out: Time (converted)"}, "Gerbillinae [13]": {"tested_on": "Gerbillinae", "assay": "Inhibitory dose against gerbil foot tapping 2 hours after iv administration", "format": "functional"}, "[14]": {"assay": "Half life of compound determined in rat", "format": "ADME, organism-based", "conditions": "in vivo, read-out: Time (converted)"}}, "note": "“And” between values parts separate entries of the source, which are not always exact repeats. Equal values may be shown once.", "data": [{"molecule": "CC(=O)C1(c2ccccc2)CCN(C(=O)CCc2c(-c3ccc(Cl)cc3)n(C)c3ccc(Cl)cc23)CC1", "values": [{"measurement": "IC50", "setting": "Substance-P receptor", "value": 0.53, "unit": "nM"}]}, {"molecule": "CN(C(=O)CN1CCN(C(=O)CCc2c(-c3ccc(Cl)cc3)n(C)c3ccc(Cl)cc23)CC1)c1ccccc1", "values": [{"measurement": "IC50", "setting": "Substance-P receptor", "value": 0.13, "unit": "nM"}, {"measurement": "inhibition in vivo at 1 mg/kg", "setting": "Gerbillinae [1]", "value": 6, "unit": "%"}, {"measurement": "inhibition in vivo at 1 mg/kg", "setting": "Gerbillinae [2]", "value": 87, "unit": "%"}]}, {"molecule": "Cn1c(-c2ccc(Cl)cc2)c(CCC(=O)N2CCC(Nc3ccccc3)CC2)c2cc(Cl)ccc21", "values": [{"measurement": "IC50", "setting": "Substance-P receptor", "value": 1.3, "unit": "nM"}]}, {"molecule": "Cn1c(-c2ccc(Cl)cc2)c(CCC(=O)N2CCN(C3CCCCC3)CC2)c2cc(Cl)ccc21", "values": [{"measurement": "IC50", "setting": "Substance-P receptor", "value": 0.35, "unit": "nM"}, {"measurement": "inhibition in vivo at 3 mg/kg", "setting": "Gerbillinae [3]", "value": 100, "unit": "%"}, {"measurement": "inhibition in vivo at 3 mg/kg", "setting": "Gerbillinae [4]", "value": 7, "unit": "%"}]}, {"molecule": "Cn1c(-c2ccc(Cl)cc2)c(CCC(=O)N2CCN(CC(C)(C)C)CC2)c2cc(Cl)ccc21", "values": [{"measurement": "IC50", "setting": "Substance-P receptor", "value": 2, "unit": "nM"}]}, {"molecule": "Cn1c(-c2ccc(Cl)cc2)c(CCC(=O)N2CCC(F)(Cc3ccccc3)CC2)c2cc(Cl)ccc21", "values": [{"measurement": "IC50", "setting": "Substance-P receptor", "value": 0.55, "unit": "nM"}]}, {"molecule": "Cn1c(-c2ccc(Cl)cc2)c(CCC(=O)N2CCC(Cc3ccccc3)CC2)c2cc(Cl)ccc21", "values": [{"measurement": "IC50", "setting": "Substance-P receptor", "value": 2.2, "unit": "nM"}]}, {"molecule": "Cn1c(-c2ccc(Cl)cc2)c(CCC(=O)N2CCN(Cc3ccccc3)CC2)c2cc(Cl)ccc21", "values": [{"measurement": "IC50", "setting": "Substance-P receptor", "value": 0.3, "unit": "nM"}, {"measurement": "inhibition in vivo at 3 mg/kg", "setting": "Gerbillinae [3]", "value": 100, "unit": "%"}, {"measurement": "inhibition in vivo at 3 mg/kg", "setting": "Gerbillinae [4]", "value": 17, "unit": "%"}]}, {"molecule": "CC(C)N1CCN(C(=O)CCc2c(-c3ccc(Cl)cc3)n(C)c3ccc(Cl)cc23)CC1", "values": [{"measurement": "IC50", "setting": "Substance-P receptor", "value": 13, "unit": "nM"}]}, {"molecule": "Cn1c(-c2ccc(Cl)cc2)c(CCC(=O)N2CCN(CC3CC3)CC2)c2cc(Cl)ccc21", "values": [{"measurement": "IC50", "setting": "Substance-P receptor", "value": 0.78, "unit": "nM"}]}, {"molecule": "Cn1c(-c2ccc(Cl)cc2)c(CCC(=O)N2CCN(Cc3ccccc3)C(=O)C2)c2cc(Cl)ccc21", "values": [{"measurement": "IC50", "setting": "Substance-P receptor", "value": 0.39, "unit": "nM"}]}, {"molecule": "CC(C)CCN1CCN(C(=O)CCc2c(-c3ccc(Cl)cc3)n(C)c3ccc(Cl)cc23)CC1", "values": [{"measurement": "IC50", "setting": "Substance-P receptor", "value": 0.34, "unit": "nM"}]}, {"molecule": "Cn1c(-c2ccc(Cl)cc2)c(CCC(=O)N2CCN(CC3CCCCC3)CC2)c2cc(Cl)ccc21", "values": [{"measurement": "IC50", "setting": "Substance-P receptor", "value": 2.9, "unit": "nM"}]}, {"molecule": "Cn1c(-c2ccc(Cl)cc2)c(CCC(=O)N2CCN(CC(=O)Nc3ccccc3)CC2)c2cc(Cl)ccc21", "values": [{"measurement": "IC50", "setting": "Substance-P receptor", "value": 30, "unit": "nM"}]}, {"molecule": "COc1ccccc1N1CCN(C(=O)CCc2c(-c3ccc(Br)cc3)[nH]c3ccc(C)cc23)CC1", "values": [{"measurement": "Tmax", "setting": "[5]", "value": 1.1, "unit": "h"}, {"measurement": "Cmax", "setting": "[6]", "value": 2, "unit": "ng/mL"}, {"measurement": "Vd", "setting": "[7]", "value": 9.5, "unit": "L/kg"}, {"measurement": "inhibition in vivo at 3 mg/kg", "setting": "Gerbillinae [8]", "value": 46, "unit": "%"}, {"measurement": "bioavailability", "setting": "[9]", "value": 3, "unit": "%"}, {"measurement": "clearance", "setting": "[10]", "value": 179, "unit": "mL/min/kg"}, {"measurement": "MRT", "setting": "[11]", "value": 0.9, "unit": "h"}, {"measurement": "half-life", "setting": "[12]", "value": 1.4, "unit": "h"}]}, {"molecule": "Cn1c(-c2ccc(Cl)cc2)c(CCC(=O)N2CCC(O)(Cc3ccccc3)CC2)c2cc(Cl)ccc21", "values": [{"measurement": "Tmax", "setting": "[5]", "value": 1.2, "unit": "h"}, {"measurement": "Cmax", "setting": "[6]", "value": 4, "unit": "ng/mL"}, {"measurement": "Vd", "setting": "[7]", "value": 3.5, "unit": "L/kg"}, {"measurement": "IC50", "setting": "Substance-P receptor", "value": 0.21, "unit": "nM"}, {"measurement": "bioavailability", "setting": "[9]", "value": 3, "unit": "%"}, {"measurement": "MRT", "setting": "[11]", "value": 1.8, "unit": "h"}, {"measurement": "ID50", "setting": "Gerbillinae [13]", "value": "0.3 mg/kg and 0.9 mg/kg"}, {"measurement": "half-life", "setting": "[14]", "value": 3.1, "unit": "h"}]}, {"molecule": "Cn1c(-c2ccc(Cl)cc2)c(CCC(=O)N2CCC(CO)(c3ccccc3)CC2)c2cc(Cl)ccc21", "values": [{"measurement": "IC50", "setting": "Substance-P receptor", "value": 55, "unit": "nM"}]}, {"molecule": "CCC(=O)N(c1ccccc1)C1CCN(C(=O)CCc2c(-c3ccc(Cl)cc3)n(C)c3ccc(Cl)cc23)CC1", "values": [{"measurement": "IC50", "setting": "Substance-P receptor", "value": 0.16, "unit": "nM"}, {"measurement": "Inhibition", "setting": "Gerbillinae [3]", "value": 100, "unit": "%"}, {"measurement": "Inhibition", "setting": "Gerbillinae [4]", "value": 50, "unit": "%"}]}]}
